Test results published in ChEMBL document CHEMBL1201862, “PubChem BioAssay data set” (2004).
The source made the active and inactive calls.

Experiments:
Cytochrome P450 2D6 = Cytochrome P450 2D6 (Homo sapiens, UniProt P10635);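 also: CYP2D6 member of a cytochrome P450 panel assay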
Cytochrome P450 2C9 = Cytochrome P450 2C9 (Homo sapiens, UniProt P11712)
Cytochrome P450 1A2 = molecular target: T1, Cytochrome P450 1A2 (Homo sapiens, UniProt P05177);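 also: PubChem cytochrome P450 panel assay, CYP1A2 panel member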
T1 sequence (P05177 whole entry): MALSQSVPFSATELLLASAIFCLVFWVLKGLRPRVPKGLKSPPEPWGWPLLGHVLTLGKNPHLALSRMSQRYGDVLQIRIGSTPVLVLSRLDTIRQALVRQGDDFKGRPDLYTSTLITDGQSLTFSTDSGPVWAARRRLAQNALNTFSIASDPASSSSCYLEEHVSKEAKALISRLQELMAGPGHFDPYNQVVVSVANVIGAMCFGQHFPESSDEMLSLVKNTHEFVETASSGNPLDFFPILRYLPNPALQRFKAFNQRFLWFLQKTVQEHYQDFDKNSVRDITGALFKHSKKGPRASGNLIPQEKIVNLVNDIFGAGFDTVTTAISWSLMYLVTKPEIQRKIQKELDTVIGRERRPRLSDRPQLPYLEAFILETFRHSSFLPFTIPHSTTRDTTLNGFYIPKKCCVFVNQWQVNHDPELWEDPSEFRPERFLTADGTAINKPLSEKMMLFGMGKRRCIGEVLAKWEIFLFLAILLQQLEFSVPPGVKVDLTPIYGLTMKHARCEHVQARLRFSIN

Cytochrome P450 2C19 = Cytochrome P450 2C19 (Homo sapiens, UniProt P33261); assay: Cytochrome panel assay with activity outcomes. Panel member name: p450-cyp2c19 Compounds with AC50 equal or less than 10 uM are considered active; type: functional; details: read-out: AC50
[1] = molecular target: FAD-linked sulfhydryl oxidase ALR (Homo sapiens, UniProt P55789); assay: inhibitors of human ALR sulfhydryl oxidase, dose response, biochemical, H2O2 detection, luminescence, cherry-pick (AID 493248)
[2] = molecular target: T2, Rac GTPase-activating protein 1 (Homo sapiens, UniProt Q9H0H5); assay: MgcRacGAP GTPase-activating activity inhibitors, confirmation, biochemical, ADP Hunter fluorescence, primary and confirmatory (AID 624330); type: functional
T2 sequence (Q9H0H5 whole entry): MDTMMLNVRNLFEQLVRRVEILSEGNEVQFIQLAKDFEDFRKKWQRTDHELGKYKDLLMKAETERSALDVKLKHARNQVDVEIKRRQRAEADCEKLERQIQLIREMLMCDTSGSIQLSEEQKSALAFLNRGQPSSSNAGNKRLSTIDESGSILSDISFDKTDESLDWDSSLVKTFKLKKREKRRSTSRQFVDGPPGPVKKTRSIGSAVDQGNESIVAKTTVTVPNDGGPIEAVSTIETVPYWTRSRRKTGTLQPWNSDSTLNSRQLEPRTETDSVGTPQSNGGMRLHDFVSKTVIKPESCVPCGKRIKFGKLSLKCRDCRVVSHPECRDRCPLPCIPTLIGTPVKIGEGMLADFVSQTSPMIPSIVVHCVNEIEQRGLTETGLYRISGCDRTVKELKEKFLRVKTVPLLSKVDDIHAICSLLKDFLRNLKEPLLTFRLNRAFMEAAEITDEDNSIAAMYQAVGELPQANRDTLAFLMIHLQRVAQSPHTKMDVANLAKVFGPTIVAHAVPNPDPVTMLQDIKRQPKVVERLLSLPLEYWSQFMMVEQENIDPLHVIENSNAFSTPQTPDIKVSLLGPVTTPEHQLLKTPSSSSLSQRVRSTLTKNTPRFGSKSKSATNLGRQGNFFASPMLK

[3] = molecular target: T3, RNA-binding protein pos-1 (Caenorhabditis elegans, UniProt G5EF15); assay: inhibitors of POS-1/mex-3 RNA binding, dose response, biochemical, fluorescence polarization (AID 1964);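 also: purified POS-1 fused to maltose binding protein made in E. coli; potency of compounds blocking POS-1 binding to fluorescent RNA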
T3 sequence (G5EF15 whole entry): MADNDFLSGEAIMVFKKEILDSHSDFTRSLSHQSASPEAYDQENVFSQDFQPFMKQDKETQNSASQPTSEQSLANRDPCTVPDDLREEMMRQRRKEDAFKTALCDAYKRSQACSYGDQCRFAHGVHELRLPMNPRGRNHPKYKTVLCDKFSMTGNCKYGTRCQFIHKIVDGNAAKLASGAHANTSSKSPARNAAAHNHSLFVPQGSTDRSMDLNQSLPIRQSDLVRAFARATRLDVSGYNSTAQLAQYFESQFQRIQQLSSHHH

[4] = molecular target: T4, Zinc finger protein mex-5 (Caenorhabditis elegans, UniProt Q9XUB2); assay: MEX-5/TCR-2 RNA interaction inhibitors, dose response, biochemical, C. elegans, fluorescence polarization (AID 1960)
T4 sequence (Q9XUB2 whole entry): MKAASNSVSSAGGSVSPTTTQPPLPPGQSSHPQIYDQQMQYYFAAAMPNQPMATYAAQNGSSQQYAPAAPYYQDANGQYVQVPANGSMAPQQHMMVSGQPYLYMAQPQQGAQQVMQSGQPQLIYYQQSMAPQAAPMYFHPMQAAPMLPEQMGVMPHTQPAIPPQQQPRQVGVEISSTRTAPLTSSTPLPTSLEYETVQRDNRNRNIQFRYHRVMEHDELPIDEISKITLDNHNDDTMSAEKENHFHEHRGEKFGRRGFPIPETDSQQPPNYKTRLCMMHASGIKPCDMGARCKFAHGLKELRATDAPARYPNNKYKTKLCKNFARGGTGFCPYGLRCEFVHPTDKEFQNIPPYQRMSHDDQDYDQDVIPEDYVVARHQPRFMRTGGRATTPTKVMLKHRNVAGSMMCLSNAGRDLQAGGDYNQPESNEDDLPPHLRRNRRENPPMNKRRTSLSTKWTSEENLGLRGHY

[5] = test system: Streptococcus sp. 'group A'; assay: growth inhibition of control SK(-) GAS strain, dose response, counter-screen for streptokinase expression inhibitor project, luminescence, kanamycin, BacTiterGlo, confirmation (AID 1900); type: functional, organism-based
[6] = cytotoxicity toward NIH3T3 fibroblasts, dose response, counter-screen, cell-based, ATP luminescence, mouse fibroblasts (AID 2010); type: functional;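 also: cells exposed to compound for about 90 hours before reading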
[7] = inhibitors of intracellular T. cruzi replication, confirmation, NIH3T3 host cells, beta-gal luminescence (AID 2044); type: functional, cell-based;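 also: intracellular parasites grown in NIH/3T3 mouse fibroblasts as host cells; luminescent beta-galactosidase reporter signal from transgenic T. cruzi replicating inside host cells; inhibitors lower the luminescence signal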
Streptococcus = assay: Group A Streptococcus viability loss, dose response, counter-screen for streptokinase expression inhibitor project, luminescence, BacTiterGlo (AID 1915); type: functional, organism-based;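 also: potency for reduction of bacterial viability or growth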
Streptokinase A = molecular target: T5, Streptokinase A (Streptococcus pyogenes serotype M1, UniProt P10520); assay: S. pyogenes streptokinase expression inhibitors, potency, dose response, plasminogen activation absorbance, OD405 (AID 1914); type: functional, Streptococcus pyogenes M1 GAS;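 also: secreted streptokinase activity via plasminogen activation per viability signal from cell pellet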
T5 sequence (P10520 whole entry): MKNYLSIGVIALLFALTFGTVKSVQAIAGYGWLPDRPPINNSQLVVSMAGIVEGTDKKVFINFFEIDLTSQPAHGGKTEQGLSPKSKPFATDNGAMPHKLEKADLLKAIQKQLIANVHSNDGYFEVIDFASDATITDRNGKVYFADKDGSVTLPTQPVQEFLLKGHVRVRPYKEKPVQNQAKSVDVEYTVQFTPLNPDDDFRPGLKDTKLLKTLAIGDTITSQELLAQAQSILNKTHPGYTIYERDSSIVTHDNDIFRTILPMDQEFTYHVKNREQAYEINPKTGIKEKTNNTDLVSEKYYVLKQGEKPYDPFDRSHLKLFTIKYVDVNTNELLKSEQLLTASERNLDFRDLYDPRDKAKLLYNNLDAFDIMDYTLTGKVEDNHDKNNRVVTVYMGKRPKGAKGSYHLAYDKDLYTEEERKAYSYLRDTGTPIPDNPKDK

H4 = assay: Luminescence Cell-Based Dose Response HTS to Identify Activators of 5'UTR Stem-Loop Driven Prion Protein mRNA Translation in H4 Neuroglioblastoma Cells. [Related pubchem assays: 1829 (Project Summary), 1814 (Primary HTS)]; type: functional; details: Homo sapiens
[8] = Luminescence Cell-Based Dose Response HTS to Identify Activators of Luciferase Translation or Activity in H4 […] Cells. [Related pubchem assays: 1829 (Project Summary), 1814 (Primary HTS)]; type: functional
Protein skinhead-1 = molecular target: T6, Protein skinhead-1 (Caenorhabditis elegans, UniProt P34707); type: functional
T6 sequence (P34707 whole entry): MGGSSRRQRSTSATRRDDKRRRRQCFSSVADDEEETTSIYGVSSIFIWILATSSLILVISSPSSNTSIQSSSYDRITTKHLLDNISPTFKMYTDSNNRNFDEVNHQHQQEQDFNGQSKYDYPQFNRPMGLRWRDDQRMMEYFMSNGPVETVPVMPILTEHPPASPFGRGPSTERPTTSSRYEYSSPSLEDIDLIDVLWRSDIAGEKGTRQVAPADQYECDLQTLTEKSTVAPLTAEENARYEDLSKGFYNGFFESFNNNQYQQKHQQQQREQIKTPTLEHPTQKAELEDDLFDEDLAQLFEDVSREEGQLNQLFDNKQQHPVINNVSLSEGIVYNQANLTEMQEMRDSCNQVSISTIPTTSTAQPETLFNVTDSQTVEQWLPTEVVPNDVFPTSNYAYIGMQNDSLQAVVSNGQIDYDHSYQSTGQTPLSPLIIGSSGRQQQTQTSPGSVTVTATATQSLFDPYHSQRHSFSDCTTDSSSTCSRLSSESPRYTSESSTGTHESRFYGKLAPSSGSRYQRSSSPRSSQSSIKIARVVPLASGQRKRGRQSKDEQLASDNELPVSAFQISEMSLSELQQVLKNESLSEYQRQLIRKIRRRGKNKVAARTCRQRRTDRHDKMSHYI

Chain of FAD-linked sulfhydryl oxidase ALR (P55789 whole entry): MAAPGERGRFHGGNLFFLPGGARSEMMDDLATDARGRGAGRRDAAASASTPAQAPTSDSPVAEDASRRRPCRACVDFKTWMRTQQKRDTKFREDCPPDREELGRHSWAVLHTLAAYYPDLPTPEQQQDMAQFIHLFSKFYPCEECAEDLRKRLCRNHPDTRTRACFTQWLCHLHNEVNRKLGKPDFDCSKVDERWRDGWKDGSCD
Chain of Cytochrome P450 2C19 (P33261 whole entry): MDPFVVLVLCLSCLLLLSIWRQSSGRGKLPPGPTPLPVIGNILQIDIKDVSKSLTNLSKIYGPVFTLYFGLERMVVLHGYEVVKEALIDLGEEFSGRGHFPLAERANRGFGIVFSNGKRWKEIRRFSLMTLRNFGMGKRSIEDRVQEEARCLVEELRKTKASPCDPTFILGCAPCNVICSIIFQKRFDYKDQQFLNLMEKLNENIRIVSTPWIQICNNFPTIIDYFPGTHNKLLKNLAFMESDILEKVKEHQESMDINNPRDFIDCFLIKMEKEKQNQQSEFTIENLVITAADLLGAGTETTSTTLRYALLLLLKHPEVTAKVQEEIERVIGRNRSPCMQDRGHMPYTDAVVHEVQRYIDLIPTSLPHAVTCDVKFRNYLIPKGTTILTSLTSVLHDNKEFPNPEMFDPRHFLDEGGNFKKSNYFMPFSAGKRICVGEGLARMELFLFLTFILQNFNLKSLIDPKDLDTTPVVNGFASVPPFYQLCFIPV
Chain of Cytochrome P450 2C9 (P11712 whole entry): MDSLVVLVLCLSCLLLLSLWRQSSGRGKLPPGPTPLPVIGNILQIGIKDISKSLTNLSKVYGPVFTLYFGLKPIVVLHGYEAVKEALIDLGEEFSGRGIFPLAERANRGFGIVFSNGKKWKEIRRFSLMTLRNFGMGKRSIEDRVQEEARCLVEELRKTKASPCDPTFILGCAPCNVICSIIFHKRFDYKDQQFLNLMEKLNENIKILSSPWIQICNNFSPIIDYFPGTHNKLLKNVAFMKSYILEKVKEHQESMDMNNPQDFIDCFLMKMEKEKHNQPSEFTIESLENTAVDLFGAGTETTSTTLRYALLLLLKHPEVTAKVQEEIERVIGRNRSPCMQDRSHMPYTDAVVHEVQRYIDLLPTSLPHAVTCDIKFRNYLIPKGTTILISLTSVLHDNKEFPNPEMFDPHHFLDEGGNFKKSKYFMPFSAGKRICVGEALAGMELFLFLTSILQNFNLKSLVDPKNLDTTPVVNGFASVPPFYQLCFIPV
Chain of Cytochrome P450 2D6 (P10635 whole entry): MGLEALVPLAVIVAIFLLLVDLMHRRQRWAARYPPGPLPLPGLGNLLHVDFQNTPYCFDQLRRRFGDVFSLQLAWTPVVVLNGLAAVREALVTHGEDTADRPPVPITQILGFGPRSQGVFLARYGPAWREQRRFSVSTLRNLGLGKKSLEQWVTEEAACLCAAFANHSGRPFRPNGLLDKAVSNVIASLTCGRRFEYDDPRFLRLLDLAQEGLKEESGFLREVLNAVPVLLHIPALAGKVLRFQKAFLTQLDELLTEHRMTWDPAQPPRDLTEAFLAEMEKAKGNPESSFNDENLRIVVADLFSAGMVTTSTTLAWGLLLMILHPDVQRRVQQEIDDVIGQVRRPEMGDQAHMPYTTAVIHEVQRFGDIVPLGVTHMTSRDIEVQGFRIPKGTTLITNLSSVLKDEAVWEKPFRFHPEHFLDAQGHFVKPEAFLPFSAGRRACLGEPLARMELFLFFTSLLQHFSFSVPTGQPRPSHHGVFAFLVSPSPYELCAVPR

O=C(CN1CCN(S(=O)(=O)c2ccc(F)cc2)CC1)Nc1ccc2c(c1)OCO2
AC50 (Cytochrome P450 2D6): 5.01 µM (inconclusive)
AC50 (Cytochrome P450 2C9): 11.2 µM (inconclusive)
AC50 (Cytochrome P450 1A2): 25.1 µM (inconclusive)
AC50 (Cytochrome P450 2C19): 3.98 µM (inconclusive)

Cc1cccc(NC(=O)c2cccc(N3C(=O)C4C5CCC(C5)C4C3=O)c2)c1C (stereo unspecified)
AC50 (Cytochrome P450 2C9): 22.4 µM (inconclusive)
AC50 (Cytochrome P450 1A2): 25.1 µM (inconclusive)

CCN(CC)c1ccc(NC(=O)CN2CCN(c3ccccn3)CC2)cc1
AC50 [1]: 0.384 µM (active)
IC50 [2]: 131 µM (active)

CCOc1cc2c(cc1/C=C(/C#N)c1ccc(C(=O)O)cc1)OCO2
EC50 [3]: > 300 µM (not active)
EC50 [4]: > 300 µM (not active)

COc1cccc(N/N=C/c2cccc(Br)c2O)c1
EC50 [5]: 12.5 µM (active)
AC50 [1]: 1.67 µM (active)
EC50 [6]: > 60 µM (not active)
EC50 [7]: 3.27 µM (active)
EC50 (Streptococcus): > 150 µM (not active)
EC50 (Streptokinase A): 19.6 µM (active)

O=C(c1ccco1)N1CCC2(CCCN(C(c3ccccc3)c3ccccc3)C2)CC1
AC50 (Cytochrome P450 1A2): 15.8 µM (inconclusive)
AC50 (Cytochrome P450 2C19): 39.8 µM (inconclusive)

CC(NC(=O)c1ccc(N2CCCC2)c([N+](=O)[O-])c1)c1ccc(S(N)(=O)=O)cc1 (stereo unspecified)
AC50 [1]: 3.51 µM (active)

Cc1ccc(NC(=O)CCOc2ccccc2)cc1
EC50 (H4): > 120 µM (not active)
EC50 [8]: 92.6 µM (active)

Cc1ccc2c(c1)c(C)c(C)n2CC(O)CN1CCOCC1 (stereo unspecified)
IC50 (Protein skinhead-1): > 100 µM (inactive)

CCCC(C)C(=O)NCc1ccccc1OC (stereo unspecified)
IC50 (Protein skinhead-1): > 100 µM (inactive)

COc1cc(/C=N/NC(=O)c2cccc([N+](=O)[O-])c2)cc(OC)c1O
AC50 [1]: 2.04 µM (active)

O=C(Nc1nccs1)c1ccc(-c2ccc([N+](=O)[O-])cc2)o1
EC50 [3]: 12.3 µM (inconclusive)
EC50 [4]: 6.66 µM (active)

CCC(C)Nc1nc2c(c(=O)n(C)c(=O)n2C)n1Cc1cccc(C)c1 (stereo unspecified)
AC50 [1]: 8.61 µM (active)

COc1cccc(-c2cccc(NC(=O)C3CCN(CC4CCOC4)CC3)c2)c1 (stereo unspecified)
IC50 (Protein skinhead-1): > 100 µM (inactive)

Cn1cnc2cc(NCc3ccc(Cl)cc3)ccc21
AC50 [1]: 5.49 µM (active)

CCOC(=O)c1c(NC(=O)CCC(=O)N2CCOCC2)sc2c1CC(C)(C)OC2
AC50 (Cytochrome P450 2C9): 0.00562 µM (inconclusive)
AC50 (Cytochrome P450 1A2): 15.8 µM (inconclusive)
AC50 (Cytochrome P450 2C19): 0.224 µM (inconclusive)

O=C(c1cc(COc2ccc(F)cc2Cl)on1)N1CCCCCC1
IC50 (Protein skinhead-1): > 100 µM (inactive)

CCc1ccc(CNc2ccc(N3CCN(C(C)=O)CC3)cc2)cc1
AC50 [1]: 0.445 µM (active)
IC50 [2]: 9.44 µM (active)

COc1ccc(-c2nnn(CC(=O)N(CC(=O)NCCC(C)C)Cc3cccs3)n2)cc1OC
AC50 (Cytochrome P450 2C9): 7.08 µM (inconclusive)
AC50 (Cytochrome P450 1A2): 31.6 µM (inconclusive)

COC(=O)[C@H](Cc1ccccc1)NC(=O)N1CCN(c2ccccc2)CC1
AC50 [1]: 6.26 µM (active)

COc1ccc(C2(CNC(=O)/C=C/c3ccco3)CCCC2)cc1OC
AC50 (Cytochrome P450 2C9): 10 µM (inconclusive)
AC50 (Cytochrome P450 1A2): 22.4 µM (inconclusive)

Cc1cc(O)c(C(C)C)cc1NC(=O)Nc1ccc([N+](=O)[O-])cc1
IC50 (Protein skinhead-1): 68.4 µM (inactive)

COc1ccc(N2CCN(C(=O)Cc3cccs3)CC2)cc1
AC50 [1]: 2.36 µM (active)

COc1cc(C)cc2c(-c3c(O)cc(O)c4c3C[C@H](C)N[C@@H]4C)cc(-c3cc(-c4c(O)cc(O)c5c4C[C@H](C)N[C@@H]5C)c4cc(C)cc(OC)c4c3O)c(O)c12
AC50 (Cytochrome P450 2D6): 5.01 µM (inconclusive)
AC50 (Cytochrome P450 1A2): 0.2 µM (inconclusive)

O=C(N/N=C/c1ccc2nccnc2c1)c1ccccc1O
EC50 (H4): 44.2 µM (active)
EC50 [8]: 48.8 µM (active)

Cc1ccc(-c2nc(N/N=C/c3ccccc3[N+](=O)[O-])c3ccccc3n2)cc1
EC50 (H4): 0.595 µM (active)

N#CC1=C(N)n2c(s/c(=C\c3cccs3)c2=O)=C(C#N)C1c1cccs1 (stereo unspecified)
AC50 [1]: 5.68 µM (active)

O=S1(=O)C=C(Oc2ccc3ccccc3c2)c2ccccc21
IC50 (Protein skinhead-1): > 100 µM (inactive)

Cc1cccc(C(=O)N(Cc2cccs2)C2CCS(=O)(=O)C2)c1 (stereo unspecified)
IC50 (Protein skinhead-1): > 100 µM (inactive)

CCOC(=O)CSc1nc2ccccc2c(=O)n1CCN1CCOCC1
IC50 (Protein skinhead-1): > 100 µM (inactive)
